Experimental data from publication PMC11882969 (Nature Communications, 2025).
Several values for one entry are separate records, joined by “and”; a condition that tells them apart may be missing. Identical values can stand only once.

Legend:
Type in all cases: cell-based
[1] = biological target: panel of 320 non-olfactory GPCRs (Homo sapiens, UniProt P30874)
[2] = biological target: panel of 320 non-olfactory GPCRs (Homo sapiens, UniProt Q8IYL9)
[3] = biological target: panel of 320 non-olfactory GPCRs (Homo sapiens, UniProt Q6NV75)
[4] = biological target: panel of 320 non-olfactory GPCRs (Homo sapiens, UniProt P30411)
[5] = biological target: panel of 320 non-olfactory GPCRs (Homo sapiens, UniProt P28335, I156V/I160V/N158G)
[6] = biological target: panel of 320 non-olfactory GPCRs (Homo sapiens, UniProt P13945)
panel of 320 non-olfactory GPCRs (Homo sapiens, UniProt P13945), sequence (P13945 whole entry): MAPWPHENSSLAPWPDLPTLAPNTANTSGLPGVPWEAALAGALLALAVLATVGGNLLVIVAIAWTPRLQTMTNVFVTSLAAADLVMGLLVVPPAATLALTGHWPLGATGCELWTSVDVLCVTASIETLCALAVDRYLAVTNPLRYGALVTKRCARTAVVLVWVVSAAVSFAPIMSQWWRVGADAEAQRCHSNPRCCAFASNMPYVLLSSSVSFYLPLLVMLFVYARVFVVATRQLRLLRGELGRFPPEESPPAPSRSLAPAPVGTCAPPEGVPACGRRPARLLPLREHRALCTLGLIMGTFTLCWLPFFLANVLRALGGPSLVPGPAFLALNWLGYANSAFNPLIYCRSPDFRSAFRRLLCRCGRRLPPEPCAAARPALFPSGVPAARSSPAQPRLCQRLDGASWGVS

[7] = biological target: panel of 320 non-olfactory GPCRs (Homo sapiens, UniProt Q15743)
panel of 320 non-olfactory GPCRs (Homo sapiens, UniProt Q15743), sequence (Q15743 whole entry): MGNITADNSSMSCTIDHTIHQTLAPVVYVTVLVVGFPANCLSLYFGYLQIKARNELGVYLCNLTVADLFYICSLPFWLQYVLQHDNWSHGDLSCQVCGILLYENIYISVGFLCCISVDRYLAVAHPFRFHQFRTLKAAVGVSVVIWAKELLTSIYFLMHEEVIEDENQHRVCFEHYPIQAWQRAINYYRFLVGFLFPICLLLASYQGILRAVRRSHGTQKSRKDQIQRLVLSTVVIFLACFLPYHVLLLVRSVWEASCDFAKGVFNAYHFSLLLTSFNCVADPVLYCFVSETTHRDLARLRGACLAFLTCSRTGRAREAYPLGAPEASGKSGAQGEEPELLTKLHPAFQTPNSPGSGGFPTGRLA

[8] = biological target: panel of 320 non-olfactory GPCRs (Homo sapiens, UniProt P21918)
panel of 320 non-olfactory GPCRs (Homo sapiens, UniProt P21918), sequence (P21918 whole entry): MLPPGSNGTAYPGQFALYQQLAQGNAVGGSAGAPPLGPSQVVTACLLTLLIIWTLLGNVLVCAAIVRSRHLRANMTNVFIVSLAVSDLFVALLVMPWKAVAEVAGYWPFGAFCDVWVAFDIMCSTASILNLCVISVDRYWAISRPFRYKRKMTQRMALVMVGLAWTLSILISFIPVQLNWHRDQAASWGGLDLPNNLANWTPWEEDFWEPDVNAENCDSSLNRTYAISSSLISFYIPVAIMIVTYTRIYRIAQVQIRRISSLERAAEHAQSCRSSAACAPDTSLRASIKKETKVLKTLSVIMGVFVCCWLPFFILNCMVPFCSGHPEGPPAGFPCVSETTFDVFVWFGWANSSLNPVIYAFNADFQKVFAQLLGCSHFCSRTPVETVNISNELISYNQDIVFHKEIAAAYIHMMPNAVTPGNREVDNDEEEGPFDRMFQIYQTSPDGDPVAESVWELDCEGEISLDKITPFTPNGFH

[9] = biological target: panel of 320 non-olfactory GPCRs (Homo sapiens, UniProt P31391)
panel of 320 non-olfactory GPCRs (Homo sapiens, UniProt P31391), sequence (P31391 whole entry): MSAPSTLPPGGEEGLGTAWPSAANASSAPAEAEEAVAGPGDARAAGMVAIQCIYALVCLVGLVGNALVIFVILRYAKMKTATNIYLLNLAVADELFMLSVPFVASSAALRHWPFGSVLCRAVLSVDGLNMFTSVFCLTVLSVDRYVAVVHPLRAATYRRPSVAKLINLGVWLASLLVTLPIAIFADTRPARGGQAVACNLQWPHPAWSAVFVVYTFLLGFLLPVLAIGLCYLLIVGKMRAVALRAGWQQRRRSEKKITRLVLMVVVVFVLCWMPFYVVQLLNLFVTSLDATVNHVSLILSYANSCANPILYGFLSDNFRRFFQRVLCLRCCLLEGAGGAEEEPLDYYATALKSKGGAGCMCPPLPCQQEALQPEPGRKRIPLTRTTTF

[10] = biological target: panel of 320 non-olfactory GPCRs (Homo sapiens, UniProt Q13258)
panel of 320 non-olfactory GPCRs (Homo sapiens, UniProt Q13258), sequence (Q13258 whole entry): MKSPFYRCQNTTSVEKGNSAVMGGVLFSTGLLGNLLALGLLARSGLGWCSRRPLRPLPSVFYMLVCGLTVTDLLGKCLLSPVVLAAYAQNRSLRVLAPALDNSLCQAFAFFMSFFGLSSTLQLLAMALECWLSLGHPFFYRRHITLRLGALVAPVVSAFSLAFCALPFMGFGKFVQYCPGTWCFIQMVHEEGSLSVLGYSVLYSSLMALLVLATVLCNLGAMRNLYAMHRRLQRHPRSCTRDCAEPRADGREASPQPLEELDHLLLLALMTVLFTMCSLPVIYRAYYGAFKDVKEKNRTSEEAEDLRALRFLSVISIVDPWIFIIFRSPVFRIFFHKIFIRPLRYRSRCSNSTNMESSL

[11] = biological target: panel of 320 non-olfactory GPCRs (Homo sapiens, UniProt P46093)
panel of 320 non-olfactory GPCRs (Homo sapiens, UniProt P46093), sequence (P46093 whole entry): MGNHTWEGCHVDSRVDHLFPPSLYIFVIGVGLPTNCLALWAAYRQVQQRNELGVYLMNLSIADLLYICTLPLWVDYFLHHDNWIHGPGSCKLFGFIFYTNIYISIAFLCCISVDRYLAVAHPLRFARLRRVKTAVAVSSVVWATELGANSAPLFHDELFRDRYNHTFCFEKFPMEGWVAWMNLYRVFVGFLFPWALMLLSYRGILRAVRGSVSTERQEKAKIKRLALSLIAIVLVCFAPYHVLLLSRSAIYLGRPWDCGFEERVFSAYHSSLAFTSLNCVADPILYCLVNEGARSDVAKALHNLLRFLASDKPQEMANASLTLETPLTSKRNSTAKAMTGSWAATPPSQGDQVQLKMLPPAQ

[12] = biological target: panel of 320 non-olfactory GPCRs (Homo sapiens, UniProt P16473)
[13] = biological target: panel of 320 non-olfactory GPCRs (Homo sapiens, UniProt P34969)
[14] = biological target: panel of 320 non-olfactory GPCRs (Homo sapiens, UniProt P47775)
[15] = biological target: panel of 320 non-olfactory GPCRs (Homo sapiens, UniProt P28222)
[16] = biological target: panel of 320 non-olfactory GPCRs (Homo sapiens, UniProt Q13304)
[17] = biological target: panel of 320 non-olfactory GPCRs (Homo sapiens, UniProt P46091)
panel of 320 non-olfactory GPCRs (Homo sapiens, UniProt P46091), sequence (P46091 whole entry): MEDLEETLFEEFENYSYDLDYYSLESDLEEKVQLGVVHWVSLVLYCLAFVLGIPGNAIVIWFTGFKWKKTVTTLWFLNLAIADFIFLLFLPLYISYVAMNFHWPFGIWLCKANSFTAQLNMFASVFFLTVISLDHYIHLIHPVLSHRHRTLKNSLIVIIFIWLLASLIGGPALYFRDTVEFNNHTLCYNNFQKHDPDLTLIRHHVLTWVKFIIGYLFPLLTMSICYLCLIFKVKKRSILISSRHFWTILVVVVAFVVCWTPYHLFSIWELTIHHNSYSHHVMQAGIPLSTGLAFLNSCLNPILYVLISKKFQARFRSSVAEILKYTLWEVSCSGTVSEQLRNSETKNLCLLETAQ

[18] = biological target: panel of 320 non-olfactory GPCRs (Homo sapiens, UniProt Q8TDV2)
[19] = biological target: panel of 320 non-olfactory GPCRs (Homo sapiens, UniProt Q6U736)
[20] = biological target: panel of 320 non-olfactory GPCRs (Homo sapiens, UniProt O95136)
[21] = biological target: panel of 320 non-olfactory GPCRs (Homo sapiens, UniProt Q99677)
[22] = biological target: panel of 320 non-olfactory GPCRs (Homo sapiens, UniProt P61073)
[23] = biological target: panel of 320 non-olfactory GPCRs (Homo sapiens, UniProt P08173)
[24] = biological target: panel of 320 non-olfactory GPCRs (Homo sapiens, UniProt Q8NFJ6)
[25] = biological target: panel of 320 non-olfactory GPCRs (Homo sapiens, UniProt O75388)
[26] = biological target: panel of 320 non-olfactory GPCRs (Homo sapiens, UniProt P33032)
[27] = biological target: panel of 320 non-olfactory GPCRs (Homo sapiens, UniProt P37288)
[28] = biological target: panel of 320 non-olfactory GPCRs (Homo sapiens, UniProt Q15761)
[29] = biological target: panel of 320 non-olfactory GPCRs (Homo sapiens, UniProt P41595)
panel of 320 non-olfactory GPCRs (Homo sapiens, UniProt P41595), sequence (P41595 whole entry): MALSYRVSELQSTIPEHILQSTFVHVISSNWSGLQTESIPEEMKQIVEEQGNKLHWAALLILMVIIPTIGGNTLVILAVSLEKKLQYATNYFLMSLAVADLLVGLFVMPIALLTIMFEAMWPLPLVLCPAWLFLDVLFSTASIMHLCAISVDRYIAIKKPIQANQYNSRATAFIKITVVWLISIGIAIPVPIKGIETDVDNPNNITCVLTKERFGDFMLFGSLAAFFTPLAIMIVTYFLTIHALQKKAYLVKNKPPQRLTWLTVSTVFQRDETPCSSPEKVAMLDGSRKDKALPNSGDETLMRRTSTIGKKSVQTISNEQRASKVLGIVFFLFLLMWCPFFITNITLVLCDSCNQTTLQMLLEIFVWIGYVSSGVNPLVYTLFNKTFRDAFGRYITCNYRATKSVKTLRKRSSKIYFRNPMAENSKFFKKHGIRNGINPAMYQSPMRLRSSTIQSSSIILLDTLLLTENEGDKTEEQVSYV

[30] = biological target: panel of 320 non-olfactory GPCRs (Homo sapiens, UniProt P28223)
[31] = biological target: panel of 320 non-olfactory GPCRs (Homo sapiens, UniProt Q99788)
[32] = biological target: panel of 320 non-olfactory GPCRs (Homo sapiens, UniProt P25101)
panel of 320 non-olfactory GPCRs (Homo sapiens, UniProt P25101), sequence (P25101 21-427): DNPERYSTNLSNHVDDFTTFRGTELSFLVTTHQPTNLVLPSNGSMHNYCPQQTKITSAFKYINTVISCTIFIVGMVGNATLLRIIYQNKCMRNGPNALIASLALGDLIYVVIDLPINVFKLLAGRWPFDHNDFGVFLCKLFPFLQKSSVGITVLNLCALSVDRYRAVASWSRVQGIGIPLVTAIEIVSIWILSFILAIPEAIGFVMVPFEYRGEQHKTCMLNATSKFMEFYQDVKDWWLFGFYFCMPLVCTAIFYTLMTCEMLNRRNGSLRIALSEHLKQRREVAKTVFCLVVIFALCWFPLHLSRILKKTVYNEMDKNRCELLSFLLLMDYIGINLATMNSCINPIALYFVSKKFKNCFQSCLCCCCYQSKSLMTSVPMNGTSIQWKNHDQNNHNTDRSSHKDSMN

[33] = biological target: panel of 320 non-olfactory GPCRs (Homo sapiens, UniProt P55085)
[34] = biological target: panel of 320 non-olfactory GPCRs (Homo sapiens, UniProt Q99527)
[35] = biological target: panel of 320 non-olfactory GPCRs (Homo sapiens, UniProt P21453)
panel of 320 non-olfactory GPCRs (Homo sapiens, UniProt P21453), sequence (P21453 whole entry): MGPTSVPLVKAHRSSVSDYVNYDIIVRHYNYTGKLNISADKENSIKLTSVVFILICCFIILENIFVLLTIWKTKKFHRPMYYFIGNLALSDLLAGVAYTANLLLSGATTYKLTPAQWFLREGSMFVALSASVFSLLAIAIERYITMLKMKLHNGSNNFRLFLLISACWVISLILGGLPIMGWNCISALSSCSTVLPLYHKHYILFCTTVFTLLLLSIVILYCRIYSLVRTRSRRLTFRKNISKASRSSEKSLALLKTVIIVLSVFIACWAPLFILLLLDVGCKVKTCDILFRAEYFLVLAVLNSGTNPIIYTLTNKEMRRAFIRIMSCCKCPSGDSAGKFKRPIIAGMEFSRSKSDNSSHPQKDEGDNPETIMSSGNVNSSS

[36] = biological target: panel of 320 non-olfactory GPCRs (Homo sapiens, UniProt P43657)
[37] = biological target: panel of 320 non-olfactory GPCRs (Homo sapiens, UniProt Q92847)

panel of 320 non-olfactory GPCRs (Homo sapiens, UniProt Q8IYL9), sequence (Q8IYL9 whole entry): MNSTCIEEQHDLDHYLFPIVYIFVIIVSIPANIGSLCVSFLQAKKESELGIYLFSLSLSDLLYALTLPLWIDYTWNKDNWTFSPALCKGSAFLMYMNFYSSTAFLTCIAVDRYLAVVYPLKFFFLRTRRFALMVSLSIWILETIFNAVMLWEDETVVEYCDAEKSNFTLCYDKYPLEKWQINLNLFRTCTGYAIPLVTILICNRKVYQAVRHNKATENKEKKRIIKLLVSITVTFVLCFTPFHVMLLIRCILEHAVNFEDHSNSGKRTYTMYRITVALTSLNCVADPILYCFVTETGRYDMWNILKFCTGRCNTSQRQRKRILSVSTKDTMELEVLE
panel of 320 non-olfactory GPCRs (Homo sapiens, UniProt P30874), sequence (P30874 whole entry): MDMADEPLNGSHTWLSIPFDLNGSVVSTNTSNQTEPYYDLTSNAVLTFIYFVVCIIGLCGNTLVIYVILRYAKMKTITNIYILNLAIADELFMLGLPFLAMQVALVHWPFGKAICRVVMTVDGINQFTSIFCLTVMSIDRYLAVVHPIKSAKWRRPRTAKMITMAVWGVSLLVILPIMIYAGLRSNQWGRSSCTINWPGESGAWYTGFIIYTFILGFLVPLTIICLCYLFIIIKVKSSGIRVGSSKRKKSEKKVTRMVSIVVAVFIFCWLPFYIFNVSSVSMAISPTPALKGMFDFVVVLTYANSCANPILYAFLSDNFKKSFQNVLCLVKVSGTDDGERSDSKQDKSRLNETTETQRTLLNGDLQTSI

Row | Compound | Fold of Basal RLU [1] | Fold of Basal RLU [2] | Fold of Basal RLU [3] | Fold of Basal RLU [4] | Fold of Basal RLU [5] | Fold of Basal RLU [6] | Fold of Basal RLU [7] | Fold of Basal RLU [8] | Fold of Basal RLU [9] | Fold of Basal RLU [10] | Fold of Basal RLU [11] | Fold of Basal RLU [12] | Fold of Basal RLU [13] | Fold of Basal RLU [14] | Fold of Basal RLU [15] | Fold of Basal RLU [16] | Fold of Basal RLU [17] | Fold of Basal RLU [18] | Fold of Basal RLU [19] | Fold of Basal RLU [20] | further results
1 | Cc1cc(C(=O)NC(C)(c2ccco2)c2ccco2)nn1-c1cccc(C(F)(F)F)c1 [‘4936] | 0.7 and 1 | 1.1 fold and 1 fold | 1.7 fold and 1.2 fold and 1.4 fold and 2.1 fold | 1.1 fold and 1.3 fold and 0.9 fold and 1.2 fold | 0.8 fold and 1 fold and 1.3 fold | 0.9 and 0.7 and 1 | 0.6 fold and 0.9 fold and 1 fold | 1.1 and 1.3 and 1.4 | 1.9 and 1.7 and 2.4 and 1.5 | 1.5 and 1.4 and 1.6 and 2.3 | 0.9 fold and 1 fold and 0.8 fold | 0.7 and 0.6 and 0.9 | 1 fold and 1.5 fold and 1.8 fold | 1.4 fold and 2.1 fold and 1.5 fold and 1.8 fold | 1.4 fold and 1.2 fold and 1.3 fold | 1.6 fold and 1.4 fold and 1.1 fold | 1 fold and 1.2 fold and 1.5 fold and 1.3 fold | 1 and 0.6 and 1.2 | 1.3 fold and 1.4 fold and 1.1 fold and 1.8 fold | 0.9 fold and 1.1 fold and 1.2 fold and 1 fold | Fold of Basal RLU [21]: 1.5 and 1.4 and 1.3 and 1; Fold of Basal RLU [22]: 1 fold and 1.3 fold and 1.2 fold; Fold of Basal RLU [23]: 0.7 and 1.1 and 1 and 0.6; Fold of Basal RLU [24]: 0.9 and 1.3 and 0.8; Fold of Basal RLU [25]: 1.4 fold and 1.1 fold and 1.3 fold and 1.2 fold; Fold of Basal RLU [26]: 1.1 fold and 1.2 fold and 1.3 fold and 1 fold; Fold of Basal RLU [27]: 0.9 and 0.7 and 1.1 and 1; Fold of Basal RLU [28]: 1.1 fold and 1 fold; Fold of Basal RLU [29]: 1.1 fold and 1.6 fold and 2 fold; Fold of Basal RLU [30]: 1.2 fold and 1 fold and 1.4 fold; Fold of Basal RLU [31]: 1.1 and 1 and 0.9; Fold of Basal RLU [32]: 0.9 fold and 0.8 fold and 0.6 fold; Fold of Basal RLU [33]: 0.9 and 1.3 and 1.1; Fold of Basal RLU [34]: 1.9 and 1.3 and 1.5 and 1.4; Fold of Basal RLU [35]: 1.2 fold and 0.7 fold and 1.1 fold; Fold of Basal RLU [36]: 0.7 fold and 0.8 fold; Fold of Basal RLU [37]: 1.3 fold and 2.2 fold and 1.6 fold
2 | COC(=O)[C@@](C)(NC(=O)c1cc(C)n(-c2cccc(C(F)(F)F)c2)n1)c1cccs1 [‘1350] | 0.7 and 0.8 and 0.6 | 0.9 fold and 0.8 fold and 1 fold | 0.8 fold and 0.7 fold and 1 fold and 0.9 fold | 0.9 fold and 1 fold and 0.8 fold | 0.9 fold and 1.1 fold and 0.7 fold and 1 fold | 1 and 1.5 and 1.9 and 1.1 | 0.9 fold and 1 fold | 0.5 and 0.4 and 0.6 | 2.3 and 2 and 1.6 | 0.9 and 0.6 and 0.8 | 1.1 fold and 0.9 fold and 1 fold | 0.7 and 0.8 and 0.6 and 0.9 | 0.9 fold and 1.4 fold and 1 fold | 1.5 fold and 1.3 fold and 0.8 fold | 1.3 fold and 1.1 fold and 1.2 fold | 1 fold and 1.2 fold and 0.8 fold and 1.1 fold | 1 fold and 0.8 fold and 1.4 fold | 1.2 and 0.6 and 0.9 | 2.3 fold and 1.9 fold | 1.3 fold and 0.9 fold and 1.2 fold and 1 fold | Fold of Basal RLU [21]: 1.3 and 1.1 and 1 and 0.9; Fold of Basal RLU [22]: 1.2 fold and 1.1 fold and 1.3 fold; Fold of Basal RLU [23]: 1 and 1.1 and 0.6 and 0.8; Fold of Basal RLU [24]: 0.9 and 0.7 and 0.8 and 1.1; Fold of Basal RLU [25]: 1.1 fold and 0.9 fold and 1 fold and 0.8 fold; Fold of Basal RLU [26]: 1.3 fold and 1 fold and 1.2 fold and 1.1 fold; Fold of Basal RLU [27]: 0.7 and 1 and 0.9; Fold of Basal RLU [28]: 1.2 fold and 1 fold; Fold of Basal RLU [29]: 0.8 fold and 0.7 fold and 1 fold; Fold of Basal RLU [30]: 0.9 fold and 0.8 fold; Fold of Basal RLU [31]: 1.1 and 1 and 1.2; Fold of Basal RLU [32]: 1.1 fold and 0.9 fold and 0.8 fold; Fold of Basal RLU [33]: 0.8 and 1.2; Fold of Basal RLU [34]: 1.2 and 1.1 and 0.9; Fold of Basal RLU [35]: 0.9 fold and 1 fold and 0.8 fold and 0.7 fold; Fold of Basal RLU [36]: 0.9 fold and 1 fold and 1.1 fold and 0.7 fold; Fold of Basal RLU [37]: 1.4 fold and 1.8 fold and 1.6 fold
